Measured values as given in patent US6737383B1, “Herbicidal oxadiazolidines” (priority 1999, dated 2004).

Legend:
[1] = test system: duck salad; assay: Test B flood test duck salad; assay type: in vivo, Heteranthera limosa
Method in brief: (§1)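 Each value is a visual injury score relative to controls, with 10 meaning complete control and 0 no effect. Evaluation took place twelve to sixteen days after the 2-leaf-stage plants were treated and kept in the greenhouse.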

[2] = test system: blackgrass; assay: Test B pre/postemergence blackgrass; assay type: in vivo, Alopecurus myosuroides
Method in brief: (§2)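 Response is a visual 0-to-10 score relative to untreated plants, where 0 means no effect and 10 means complete control, taken twelve to sixteen days after application. Treatments went onto soil at planting and onto foliage of 1- to 4-leaf plants, using a surfactant-containing non-phytotoxic solvent.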

[3] = test system: surinam grass; assay: Test B pre/postemergence surinam grass; assay type: in vivo, Brachiaria decumbens
Method in brief: as §2

[4] = test system: cocklebur; assay: Test B pre/postemergence cocklebur; assay type: in vivo, Xanthium strumarium
Method in brief: as §2

[5] = test system: rape; assay: Test B pre/postemergence rape; assay type: in vivo, Brassica napus
Method in brief: as §2

[6] = test system: purple nutsedge; assay: Test B pre/postemergence purple nutsedge; assay type: in vivo, Cyperus rotundus
Method in brief: as §2

[7] = test system: pigweed; assay: Test B pre/postemergence pigweed; assay type: in vivo, Amaranthus retroflexus
Method in brief: as §2

[8] = test system: velvetleaf; assay: Test B pre/postemergence velvetleaf; assay type: in vivo, Abutilon theophrasti
Method in brief: as §2

[9] = test system: bamyardgrass; assay: Test B flood test barnyardgrass; assay type: in vivo, Echinochloa crus-galli
Method in brief: as §1

[10] = test system: corn; assay: Test B pre/postemergence corn; assay type: in vivo, Zea mays
Method in brief: as §2

[11] = test system: rice; assay: Test B flood test rice; assay type: in vivo, Oryza sativa
Method in brief: as §1

[12] = test system: morningglory; assay: Test B pre/postemergence morningglory; assay type: in vivo, Ipomoea hederacea
Method in brief: as §2

[13] = test system: sugar beet; assay: Test B pre/postemergence sugar beet; assay type: in vivo, Beta vulgaris
Method in brief: as §2

[14] = test system: giant foxtail; assay: Test B pre/postemergence giant foxtail; assay type: in vivo, Setaria faberii
Method in brief: as §2

[15] = test system: bedstraw; assay: Test B pre/postemergence bedstraw; assay type: in vivo, Galium aparine; settings: Postemergence, Rate 62 g/ha; scale 0 to 10, 0 is no effect, 10 is complete control
Method in brief: as §2

[16] = Rate 62 g/ha, flood test species, Pre-emergence, visual evaluation after twelve to sixteen days
[17] = Rate 125 g/ha, under heading Pre-emergence, flood test species, visual evaluation after twelve to sixteen days
[18] = Rate 250 g/ha, Pre-emergence (flood test species), scale 0 to 10, 0 is no effect, 10 is complete control
[19] = Rate 500 g/ha, Pre-emergence section of Table B, 0 to 10 scale (0 no effect, 10 complete control)
[20] = Postemergence, Rate 62 g/ha, scale 0 to 10, 0 is no effect, 10 is complete control
[21] = Postemergence, Rate 125 g/ha, scale of 0 to 10 where 0 is no effect and 10 is complete control
[22] = Postemergence, Rate 250 g/ha, scale of 0 to 10, 0 is no effect, 10 is complete control
[23] = Preemergence, Rate 62 g/ha, scale of 0 to 10 where 0 is no effect and 10 is complete control
[24] = Preemergence, Rate 125 g/ha, scale of 0 to 10 where 0 is no effect and 10 is complete control
[25] = Preemergence, Rate 250 g/ha, scale 0 to 10 (0 no effect, 10 complete control)
[26] = Preemergence, Rate 500 g/ha, scale of 0 to 10 where 0 is no effect and 10 is complete control
[27] = Rate 500 g/ha, Postemergence, scale 0 to 10, 0 is no effect, 10 is complete control

Question: Which results are given for `CC[C@H](C)n1c(=O)on(C(=O)N(c2ccc(Cl)cc2)C(C)C)c1=O` [Compound 664]?
Answer: Plant response rating, Ducksalad (0 to 10 scale, 0 is no effect, 10 is complete control) [1, 16]: 0; Ducksalad plant response rating (0 to 10 scale, 0 is no effect, 10 is complete control) [1, 17]: 0; Ducksalad plant response rating [1, 18]: 0; Ducksalad plant response rating [1, 19]: 0; Plant response rating, Blackgrass [2, 20]: 4; Blackgrass plant response rating [2, 21]: 7; Blackgrass plant response rating [2, 22]: 9; Blackgrass plant response rating [2, 23]: 5; Blackgrass plant response rating [2, 24]: 6; Plant response rating, Blackgrass [2, 25]: 6; Plant response rating, Blackgrass [2, 26]: 8; Blackgrass plant response rating [2, 27]: 9; Plant response rating, B. signalgrass [3, 20]: 0; Plant response rating, B. signalgrass [3, 21]: 0; B. signalgrass plant response rating [3, 22]: 4; B. signalgrass plant response rating [3, 23]: 1; B. signalgrass plant response rating [3, 24]: 5; Plant response rating, B. signalgrass [3, 25]: 5; Plant response rating, B. signalgrass [3, 26]: 8; B. signalgrass plant response rating [3, 27]: 7; Plant response rating, Cocklebur [4, 20]: 0; Cocklebur plant response rating [4, 21]: 0; Cocklebur plant response rating [4, 22]: 2; Cocklebur plant response rating [4, 23]: 0; Cocklebur plant response rating [4, 24]: 0; Plant response rating, Cocklebur [4, 25]: 0; Plant response rating, Cocklebur [4, 26]: 3; Cocklebur plant response rating [4, 27]: 6; Plant response rating, Rape [5, 20]: 0; Rape plant response rating [5, 21]: 0; Rape plant response rating [5, 23]: 0; Rape plant response rating [5, 24]: 1; Plant response rating, Rape [5, 25]: 1; Plant response rating, Rape [5, 26]: 6; Rape plant response rating [5, 27]: 3; Plant response rating, Nutsedge [6, 20]: 0; Nutsedge plant response rating [6, 21]: 0; Nutsedge plant response rating [6, 23]: 0; Nutsedge plant response rating [6, 24]: 0; Plant response rating, Nutsedge [6, 25]: 0; Plant response rating, Nutsedge [6, 26]: 0; Nutsedge plant response rating [6, 27]: 0; Plant response rating, Redroot pigweed [7, 20]: 0; Redroot pigweed plant response rating [7, 21]: 2; Redroot pigweed plant response rating [7, 23]: 2; Redroot pigweed plant response rating [7, 24]: 7; Plant response rating, Redroot pigweed [7, 25]: 7; Plant response rating, Redroot pigweed [7, 26]: 10; Redroot pigweed plant response rating [7, 27]: 6; Plant response rating, Velvetleaf [8, 20]: 0; Velvetleaf plant response rating [8, 21]: 0; Velvetleaf plant response rating [8, 23]: 0; Velvetleaf plant response rating [8, 24]: 0; Plant response rating, Velvetleaf [8, 25]: 5; Plant response rating, Velvetleaf [8, 26]: 5; Velvetleaf plant response rating [8, 27]: 6; Plant response rating, Barnyardgrass (0 to 10 scale, 0 is no effect, 10 is complete control) [9, 16]: 0; Barnyardgrass plant response rating (0 to 10 scale, 0 is no effect, 10 is complete control) [9, 17]: 0; Barnyardgrass plant response rating [9, 18]: 0; Barnyardgrass plant response rating [9, 19]: 0; Plant response rating, Corn [10, 20]: 0; Corn plant response rating [10, 21]: 0; Corn plant response rating [10, 22]: 0; Corn plant response rating [10, 23]: 0; Corn plant response rating [10, 24]: 0; Plant response rating, Corn [10, 25]: 0; Plant response rating, Corn [10, 26]: 0; Corn plant response rating [10, 27]: 0; Plant response rating, Rice (0 to 10 scale, 0 is no effect, 10 is complete control) [11, 16]: 0; Rice plant response rating (0 to 10 scale, 0 is no effect, 10 is complete control) [11, 17]: 0; Rice plant response rating [11, 18]: 0; Rice plant response rating [11, 19]: 0; Plant response rating, Morningglory [12, 20]: 0; Morningglory plant response rating [12, 21]: 2; Morningglory plant response rating [12, 22]: 9; Morningglory plant response rating [12, 23]: 0; Morningglory plant response rating [12, 24]: 0; Plant response rating, Morningglory [12, 25]: 0; Plant response rating, Morningglory [12, 26]: 4; Morningglory plant response rating [12, 27]: 10; Plant response rating, Sugarbeets [13, 20]: 0; Sugarbeets plant response rating [13, 21]: 0; Sugarbeets plant response rating [13, 23]: 0; Sugarbeets plant response rating [13, 24]: 0; Plant response rating, Sugarbeets [13, 25]: 0; Plant response rating, Sugarbeets [13, 26]: 5; Sugarbeets plant response rating [13, 27]: 0; Plant response rating, Giant foxtail [14, 20]: 2; Giant foxtail plant response rating [14, 21]: 6; Giant foxtail plant response rating [14, 22]: 9; Giant foxtail plant response rating [14, 23]: 9; Giant foxtail plant response rating [14, 24]: 10; Plant response rating, Giant foxtail [14, 25]: 10; Plant response rating, Giant foxtail [14, 26]: 10; Giant foxtail plant response rating [14, 27]: 9; Plant response rating, Bedstraw [15]: 0
